{"source": "paper PMC10216581", "about": "“Homogeneous, Synthetic, Non-Saccharide Glycosaminoglycan Mimetics as Potent Inhibitors of Human Cathepsin G” (Biomolecules, 2023)", "key": {"Human CatG [1]": {"molecular_target": "T1, Human CatG (Homo sapiens, UniProt P08311)", "T1 construct": "purchased Elastin Products Company (Owensville, MO, USA)", "T1 sequence (P08311 21-255)": "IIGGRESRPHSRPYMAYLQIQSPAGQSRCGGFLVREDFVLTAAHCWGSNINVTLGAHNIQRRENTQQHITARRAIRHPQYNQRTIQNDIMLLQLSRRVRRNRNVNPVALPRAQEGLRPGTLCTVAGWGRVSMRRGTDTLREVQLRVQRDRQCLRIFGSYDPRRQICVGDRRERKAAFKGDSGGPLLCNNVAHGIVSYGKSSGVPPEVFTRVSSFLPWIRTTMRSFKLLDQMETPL", "test": "Salt dependence of CatG inhibition by NSGM 25 (ionic/nonionic binding energy)", "assay_type": "biochemical", "experimental": "Each KI value was calculated from the corresponding IC50 using the Cheng–Prusoff equation [43]. A double-log plot of the KI against Na^+ concentration was prepared and analyzed using the equation log KI=log KI,NONIONIC+ZψlogNa^+ . Here, the slope corresponds to the number of ion-pair interactions (Z) and the counterions released per negative charge upon ion binding (ψ = 0.8), while the intercept corresponds to the nonionic affinity (KI,NONIONIC). The contributions of ionic and nonionic binding energies to the interactions were obtained from the slope and intercept of the plot in Excel.\nA fundamental point being advanced in NSGM-based mimicry is the presumed increase in hydrophobic forces contributing to binding affinity. As is well-recognized, heparin and other GAGs utilize primarily electrostatic forces in binding to proteins. […] The resolution of overall binding energy into ionic and nonionic contributions is typically achieved by performing affinity measurements as a function of the ionic strength of the buffer. According to the protein–polyelectrolyte theory, the two contributions can be resolved from a double-log plot of binding affinity against the Na^+ concentration, as defined by the equation log KI = log KI,NONIONIC + Zψ × log [Na^+], where Z represents the number of salt interactions, and ψ is the proportion of Na^+ released per anion upon ligand binding and is equal to 0.8 for heparin [55].\nFigure 6 Salt dependence of CatG inhibition by NSGM 25. (A) Salt-dependent direct inhibition of CatG by NSGM 25. Data were obtained using substrate S-7388 in a chromogenic substrate hydrolysis assay. Solid lines represent sigmoidal dose–response analysis (Equation (1)) of the data to obtain IC50, ΔY%, and HS. Errors represent ± 1 S.E. (B) A double-log plot of the KI calculated using Cheng–Rusoff equation for uncompetitive inhibition against the concentration of salt.\nThe measured IC50s of our allosteric inhibitors are distinct from inhibition constants KI, which are thermodynamic constants. Cheng and Prusoff provided a mathematical foundation for the transformation of IC50s into KIs for uncompetitive inhibitors. In their formulation, KI is equal to IC50 × [S]/(KM + [S]), which is directly applicable to our study. Thus, it becomes possible to utilize the linear double-log analysis described above for our NSGM 25, which is an uncompetitive inhibitor. […] Linear regression yielded a slope of 2.94 and an intercept of −4.32 (Table 5). Whereas the former corresponds to an ionic binding energy of […] at 37 °C and 100 mM salt, the latter yields a nonionic binding energy of 6.12 kcal/mol. […] Such important roles of two forces have not been observed earlier. More importantly, the higher nonionic component bodes well for the discovery of second-generation inhibitors with higher selectivity."}, "thrombin": {"tested_on": "thrombin", "set-up": "method as in PMID 9790687", "settings": "previous study; read-out: inhibitory potency; cited from earlier work"}, "factor XIa": {"tested_on": "factor XIa", "set-up": "method as in PMID 9790687", "settings": "previous study; read-out: inhibitory potency; cited from earlier work"}, "human plasma [2]": {"tested_on": "human plasma", "test": "Prothrombin time (PT) clotting assay", "assay_type": "biochemical", "experimental": "(§1) The impacts of NSGM 25 on activated partial thromboplastin time (aPTT) and the prothrombin time (PT) of human plasma were measured employing a standard one-stage recalcification assay at 37 °C, as previously reported. CaCl2 and thromboplastin-D were used to initiate clotting in aPTT and PT assays, respectively, in the absence and presence of NSGM 25, and the time to clot was recorded accordingly."}, "Human CatG [3]": {"molecular_target": "T1, Human CatG", "test": "Michaelis-Menten kinetics of CatG hydrolysis of chromogenic substrate S-7388 in the presence of NSGM 25", "assay_type": "biochemical", "experimental": "[…] The data were analyzed using the standard Michaelis–Menten equation in Sigmaplot version 12 to determine the KM and VMAX.\nFigure 5 Kinetics of inhibition of 60 nM CatG by NSGM 25. Michaelis–Menten kinetics of CatG hydrolysis of chromogenic substrate (S-7388) in the presence of NSGM 25. Experiments were performed at 37 °C in 20 mM tris buffer, pH 7.4. Solid lines represent nonlinear regression analysis of the data using the standard Michaelis-Menten to calculate KM and VMAX."}, "factor IXa": {"tested_on": "factor IXa", "set-up": "method as in PMID 9790687", "settings": "previous study; read-out: inhibitory potency; cited from earlier work"}, "factor Xa": {"tested_on": "factor Xa", "set-up": "method as in PMID 9790687", "settings": "previous study; read-out: inhibitory potency; cited from earlier work"}, "factor XIIa": {"tested_on": "factor XIIa", "set-up": "method as in PMID 9790687", "settings": "previous study; read-out: inhibitory potency; cited from earlier work"}, "human plasma [4]": {"tested_on": "human plasma", "test": "Activated partial thromboplastin time (aPTT) clotting assay", "assay_type": "biochemical", "experimental": "as §1"}, "human plasmin": {"tested_on": "human plasmin", "set-up": "method as in PMID 9790687", "settings": "previous studies; cited from earlier work"}, "[5]": {"settings": "linear regression of log KI versus log[Na+]"}, "[6]": {"settings": "human plasma, concentration as high as 1 mM"}, "[7]": {"settings": "50 nM NSGM 25, substrate S-7388, pH 7.4, 37 °C"}}, "note": "Where “and” joins values, the source holds several entries; their conditions need not be identical. Equal values may be shown once. Entries after “also recorded” stand apart in the source; their conditions may differ. Marks after values point to notes of the source that are not given here.", "data": [{"smiles": "O=c1c(OS(=O)(=O)O)c(-c2ccc(OS(=O)(=O)O)c(OS(=O)(=O)O)c2)oc2cc(OS(=O)(=O)O)cc(OCc3ccc(COc4cc(OS(=O)(=O)O)cc5oc(-c6ccc(OS(=O)(=O)O)c(OS(=O)(=O)O)c6)c(OS(=O)(=O)O)c(=O)c45)cc3)c12", "note": "[NSGM 25]", "values": [{"measurement": "HS", "setting": "Human CatG [1]; 50 mM NaCl", "value": "1.3 ± 0.4"}, {"measurement": "IC50", "setting": "Human CatG [1]; 50 mM NaCl", "value": "43 ± 10", "unit": "nM"}, {"measurement": "ΔY", "setting": "Human CatG [1]; 50 mM NaCl", "value": "87.7 ± 7.3 ^b %"}, {"measurement": "IC50", "setting": "Human CatG [1]; 50 mM NaCl, pH 7.4, 37 °C", "value": "42.7 ± 10", "unit": "nM"}, {"measurement": "Ki", "setting": "Human CatG [1]; 50 mM NaCl, calculated from IC50 with Cheng-Prusoff equation (uncompetitive)", "value": "10.9 ± 3.9", "unit": "nM"}, {"measurement": "HS", "setting": "Human CatG [1]; 100 mM NaCl", "value": "0.7 ± 0.1"}, {"measurement": "IC50", "setting": "Human CatG [1]; 100 mM NaCl, pH 7.4, 37 °C", "value": "52.6 ± 12.2", "unit": "nM"}, {"measurement": "Ki", "setting": "Human CatG [1]; 100 mM NaCl, calculated from IC50 with Cheng-Prusoff equation", "value": "19.2 ± 5.3", "unit": "nM"}, {"measurement": "HS", "setting": "Human CatG [1]; 150 mM NaCl", "value": "1.6 ± 0.3"}, {"measurement": "ΔY", "setting": "Human CatG [1]; 150 mM NaCl", "value": "74.4 ± 2.9", "unit": "%"}, {"measurement": "IC50", "setting": "Human CatG [1]; 150 mM NaCl, pH 7.4, 37 °C", "value": "319 ± 44.5", "unit": "nM"}, {"measurement": "Ki", "setting": "Human CatG [1]; 150 mM NaCl, calculated from IC50 with Cheng-Prusoff equation", "value": "148 ± 54", "unit": "nM"}, {"measurement": "HS", "setting": "Human CatG [1]; 200 mM NaCl", "value": "2.0 ± 0.5"}, {"measurement": "ΔY", "setting": "Human CatG [1]; 200 mM NaCl", "value": "73.2 ± 4.9", "unit": "%"}, {"measurement": "IC50", "setting": "Human CatG [1]; 200 mM NaCl, pH 7.4, 37 °C", "value": "3450 ± 517", "unit": "nM"}, {"measurement": "Ki", "setting": "Human CatG [1]; 200 mM NaCl, calculated from IC50 with Cheng-Prusoff equation", "value": "1670 ± 480", "unit": "nM"}, {"measurement": "ionic binding energy", "setting": "Human CatG [1]; 37 °C and 100 mM salt", "value": 4.88, "unit": "kcal/mol"}, {"measurement": "loss in inhibition potency", "setting": "Human CatG [1]; NaCl increased from 50 mM to 200 mM", "value": "~ 80 fold"}, {"measurement": "ΔGNON-IONIC (nonionic binding energy)", "setting": "Human CatG [1]; from intercept of double-log plot", "value": 6.12, "unit": "kcal/mol"}, {"measurement": "Intercept", "setting": "Human CatG [1]; [5]", "value": "−4.32"}, {"measurement": "Slope", "setting": "Human CatG [1]; [5]", "value": 2.94}, {"measurement": "ΔGIONIC", "setting": "Human CatG [1]; share of binding energy", "value": 44.4, "unit": "%"}, {"measurement": "ΔGNON-IONIC", "setting": "Human CatG [1]; share of binding energy", "value": 55.6, "unit": "%"}, {"measurement": "IC50", "setting": "thrombin", "value": "> 150000", "unit": "nM"}, {"measurement": "IC50", "setting": "factor XIa", "value": "> 150000", "unit": "nM"}, {"measurement": "PT (EC2X)", "setting": "human plasma [2]; concentration required to double the PT of pooled human plasma", "value": ">1000", "unit": "µM"}, {"measurement": "effect on PT clotting time", "setting": "human plasma [2]; [6]", "value": "did not impact; also recorded: did not extend"}, {"measurement": "Km", "setting": "Human CatG [3]; [7]", "value": "2180 ± 270", "unit": "µM"}, {"measurement": "VMAX", "setting": "Human CatG [3]; [7]", "value": "52.9 ± 4.1", "unit": "mAu/min"}, {"measurement": "Km", "setting": "Human CatG [3]; 100 nM NSGM 25", "value": "1310 ± 60", "unit": "µM"}, {"measurement": "VMAX", "setting": "Human CatG [3]; 100 nM NSGM 25", "value": "31.0 ± 0.8", "unit": "mAu/min"}, {"measurement": "Km", "setting": "Human CatG [3]; 150 nM NSGM 25", "value": "870 ± 200", "unit": "µM"}, {"measurement": "VMAX", "setting": "Human CatG [3]; 150 nM NSGM 25", "value": "21.1 ± 2.1", "unit": "mAu/min"}, {"measurement": "Km", "setting": "Human CatG [3]; 200 nM NSGM 25", "value": "800 ± 110", "unit": "µM"}, {"measurement": "VMAX", "setting": "Human CatG [3]; 200 nM NSGM 25", "value": "17.0 ± 1.0", "unit": "mAu/min"}, {"measurement": "Km", "setting": "Human CatG [3]; 400 nM NSGM 25", "value": "770 ± 300", "unit": "µM"}, {"measurement": "VMAX", "setting": "Human CatG [3]; 400 nM NSGM 25", "value": "12 ± 2 mAu/min and 12.4 ± 2.1 mAu/min"}, {"measurement": "mechanism of CatG inhibition", "setting": "Human CatG [3]; from simultaneous reduction in KM and VMAX", "value": "uncompetitive"}, {"measurement": "IC50", "setting": "factor IXa", "value": "> 150000", "unit": "nM"}, {"measurement": "IC50", "setting": "factor Xa", "value": "> 150000", "unit": "nM"}, {"measurement": "IC50", "setting": "factor XIIa", "value": "> 150000", "unit": "nM"}, {"measurement": "aPTT (EC2X)", "setting": "human plasma [4]; concentration required to double the aPTT of pooled human plasma", "value": ">1000", "unit": "µM"}, {"measurement": "effect on aPTT clotting time", "setting": "human plasma [4]; [6]", "value": "did not impact; also recorded: did not extend"}, {"measurement": "IC50", "setting": "human plasmin", "value": "~6300", "unit": "nM"}]}]}
